Reference: article PMC11853660 (Biomimetics, 2025)
Where a SMILES comes first, the peptide text is derived from it. [ ]: non-standard residue; d: D form. pS = N[C@@H](COP(=O)(O)O)C(=O)O

What was measured:
[1] = tested on: MMP1, MMP8, α-amylase, and lysozyme; experiment: Peptide stability in artificial saliva with all salivary enzymes simultaneously (HPLC); assay type: in vitro ADME; details: all enzymes at native concentrations, 30 min, 37 °C, n = 3
Procedure: (§1) Solutions of MMP8, MMP1 (R&D systems, Minneapolis, MN, USA), α-amylase, and lysozyme (Sigma, Burlington, MA, USA) were prepared following the manufacturer’s instructions. Prior to each use, pro-MMP1 and pro-MMP8 were activated with 10 mM APMA according to the manufacturer’s protocol (R&D Systems). Successful cleavage of both enzymes into their active form was confirmed using SDS-PAGE gel electrophoresis. To better mimic in vivo oral conditions, all enzymes were used at concentrations found in healthy individuals, as reported in the literature: MMP8 (final 0.286 μg/mL; [30], MMP1 (final 20 pg/mL [31], α-amylase (final 119 U/mL; [32], and lysozyme (final 0.4 μg/mL [30]. A total of 125 μL of aqueous P26 or P26-CS solutions (0.2 mg/mL final) was added to an equal volume of artificial saliva (AS; 1.2 mM CaCl2·2H2O, 50 mM HEPES buffer, 0.72 mM KH2PO4, 16 mM KCl, 4.5 mM NH4Cl, 0.2 mM MgCl2·6H20, and 1 ppm NaF). Then, the enzymes were mixed in and immediately placed in a water bath at 37 °C. An initial collection was (t = 0) carried out and analyzed by Reverse-phase High-Performance Liquid Chromatography (HPLC), as described below. Incubations for each sample were performed in triplicate. To quantify the effect of each enzyme, individual enzymes were incubated with 125 μL of P26-CS and 125 μL of AS. […]

α-amylase = experiment: Peptide stability in artificial saliva with α-amylase (HPLC); assay type: in vitro ADME; details: 37 °C
Procedure: as §1

[2] = Self-degradation of P26 without enzymes (LC/MS); assay type: physicochemical; details: P26 solution 0.2 mg/mL, 37 °C, 7 days
Procedure: P26 amelogenin peptide was synthetized by Biomer Technology (San Francisco, CA, USA). P26 solutions (0.2 mg/mL) were prepared as previously described and incubated at 37 °C for 7 days and subsequently analyzed by liquid chromatography/mass spectrometry (LC/MS; Scripps Research Institute, San Diego, CA, USA). Significant peaks in the MS spectra were matched to degradation products of P26 based on their m/z.

[3] = tested on: MMP8, MMP1, α-amylase, and lysozyme; experiment: Peptide stability in artificial saliva with individual salivary enzymes (HPLC peak area); assay type: in vitro ADME; details: individual enzymes at native concentrations, peptide 0.2 mg/mL, 30 min, 37 °C, RP-HPLC C18 peak area, triplicate
Procedure: as §1

[4] = P26 in aqueous solution, without enzymes; details: 37 °C, up to 7 days

Molecule	peptide stability, P26 versus P26 with CS [1]	degradation products at diluted amylase versus native ratio (α-amylase; α-amylase 23.87 U/mL (5× dilution, enzyme to substrate 1:10) compared with 1:2, artificial saliva, HPLC spectra)	degradation by amylase relative to other enzymes (α-amylase; α-amylase 119 U/mL (enzyme to substrate 1:2), artificial saliva, 5 h, HPLC)	self-degradation of the peptide without enzymes [2]	peptide substrate remaining (% area of initial HPLC peak at t = 0) [3]	cleaved bond [4]
CSCC[C@H](N)C(=O)N1CCC[C@H]1C(=O)N[C@@H](CC(C)C)C(=O)N1CCC[C@H]1C(=O)N[C@@H](COP(=O)(O)O)C(=O)N[C@@H](Cc1ccc(O)cc1)C(=O)N[C@@H](CCC(=O)O)C(=O)N[C@H](C(=O)N[C@@H](CC(C)C)C(=O)N[C@H](C(=O)N1CCC[C@H]1C(=O)N[C@@H](CC(C)C)C(=O)N[C@@H](CCCCN)C(=O)N[C@@H](Cc1c[nH]c2ccccc12)C(=O)N1CCC[C@H]1C(=O)N[C@@H](CO)C(=O)N[C@H](C(=O)N[C@@H](CC(=O)O)C(=O)N[C@@H](CCCCN)C(=O)N[C@H](C(=O)N[C@@H](CCCCN)C(=O)N[C@@H](CCCNC(=N)N)C(=O)N[C@@H](CCC(=O)O)C(=O)N[C@@H](CCC(=O)O)C(=O)N[C@H](C(=O)N[C@@H](CC(=O)O)C(=O)O)C(C)C)[C@@H](C)O)[C@@H](C)O)[C@@H](C)O)C(C)C [P26] (H-MPLP[pS]YEVLTPLKWPSTDKTKREEVD-OH)	comparably stable	lesser degradation products	highest levels of degradation amongst all the enzymes used	substantially resistant to self-degradation	90–100%	
MPLPS(PHOS)YEVLTPLKWPSTDKTKREEVD						M-P and V-D and E-E and L-P and P-S(PHOS)
